The values that follow come from article PMC10089316, “Adeno-Associated virus 8 delivers an immunomodulatory peptide to mouse liver more efficiently than to rat liver” (PLOS ONE, 2023).

For data set [1] the following is noted: cited from earlier work. From the text:
All constructs contain both ShK-235 and EGFP.

For data set [2], the target named is T1, mKv1.3 channels (Mus musculus, UniProt P16390).
T1 construct: expressed in transfected cells
Nature of the data set: whole-cell patch-clamp block of mKv1.3 by synthetic ShK-235. The class given is cell-based. The conditions noted are these: Port-a-Patch, L929 fibroblasts stably expressing mKv1.3, 200 ms pulses −80 to 40 mV, 20–25°C, pH 7.4, N = 3 cells per concentration, mean ± SEM, read-out: IC50 for Kv1.3 block. Here is the method: Mouse L929 fibroblasts stably expressing mKv1.3 channels were a kind gift from Dr. Chandy (Nanyang Technological University, Singapore). They were maintained in Dulbecco’s modified Eagle’s medium (DMEM) supplemented with 10% heat-inactivated fetal bovine serum (FBS), 4 mM L-glutamine, 1 mM sodium pyruvate, and 500 μg/mL G418 (Calbiochem/EMD Millipore, Billerica, MA) and cultured to 60~70% confluence.
Patch clamp assays were conducted at room temperature (20–25°C) in the whole-cell configuration using a Port-a-Patch system (Nanion Technologies, Livingston, NJ) connected to a HEKA EPC10-USB amplifier controlled with the PatchMaster software (HEKA, Germany). The external solution contained 1 mM MgCl2, 160 mM NaCl, 4.5 mM KCl, 2 mM CaCl2, and 10 mM Hepes; pH was adjusted to 7.4 with NaOH. […]
The stock of synthetic ShK-235, the supernatants of transfected HEK293T cells, and the rodent serum samples were diluted in the external solution immediately before use and tested in triplicates without any further processing. Peak Kv1.3 currents were recorded before addition of the samples and after reaching steady-state block and results were analyzed using IGOR Pro software (WaveMetrics, Portland, OR) and the IC50 of channel block was calculated by nonlinear regression using Prism software (GraphPad Software, San Diego, CA).
For orientation: Patch clamp records ionic current or voltage across a cell membrane.

In data set [3] the test system is other Kv1.x channels and the KCa3.1 channel. The note with it: cited from earlier work. From the text:
(§1) The voltage-gated Kv1.3 potassium channel has gained interest as a therapeutic target for obesity, as mice lacking Kv1.3 or treated with a Kv1.3 blocker are protected from high-fat diet (HFD)-induced obesity. Kv1.3 is also a target for autoimmune diseases, as […] (CCR7)^- effector memory T (TEM) lymphocytes express high levels of Kv1.3 upon activation and blocking of Kv1.3 inhibits their function. […] However, S ...

Data set [4] relates to Kv1.3. The note with it: cited from earlier work.
Text: as §1

T1 sequence (P16390 whole entry): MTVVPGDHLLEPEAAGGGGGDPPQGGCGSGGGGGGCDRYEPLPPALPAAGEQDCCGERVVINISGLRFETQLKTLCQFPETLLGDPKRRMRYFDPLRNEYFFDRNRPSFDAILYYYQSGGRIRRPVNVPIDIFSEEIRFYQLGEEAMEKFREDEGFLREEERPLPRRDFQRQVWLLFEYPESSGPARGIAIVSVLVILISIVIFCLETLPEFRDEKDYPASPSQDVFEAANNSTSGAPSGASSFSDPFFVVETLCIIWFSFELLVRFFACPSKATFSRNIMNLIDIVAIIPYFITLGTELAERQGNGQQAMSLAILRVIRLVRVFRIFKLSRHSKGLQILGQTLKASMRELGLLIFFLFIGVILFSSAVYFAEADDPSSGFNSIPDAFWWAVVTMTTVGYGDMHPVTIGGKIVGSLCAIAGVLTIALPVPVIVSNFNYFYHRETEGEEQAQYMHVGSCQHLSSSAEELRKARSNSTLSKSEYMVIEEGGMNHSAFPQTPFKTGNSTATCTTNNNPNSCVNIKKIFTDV

Regarding `CC[C@H](C)[C@@H]1NC(=O)[C@H](CO)NC(=O)[C@H](Cc2c[nH]cn2)NC(=O)[C@H](CCCCN)NC(=O)[C@@H]2CSSC[C@@H]3NC(=O)[C@H]([C@@H](C)O)NC(=O)[C@H](CCCCN)NC(=O)[C@H](CCCNC(=N)N)NC(=O)[C@H](CSSC[C@H](NC(=O)[C@H](CCCNC(=N)N)NC(=O)[C@H](CO)NC(=O)[C@H](CCCCN)NC(=O)[C@@H]4CCCN4C(=O)[C@H]([C@@H](C)CC)NC(=O)[C@H]([C@@H](C)O)NC(=O)[C@H](CC(=O)O)NC(=O)[C@H]([C@@H](C)CC)NC(=O)[C@@H](NC(=O)[C@H](CO)NC(=O)[C@@H](N)CCCNC(=N)N)CSSC[C@@H](C(=O)N[C@@H](C)C(=O)O)NC(=O)[C@H]([C@@H](C)O)NC(=O)CNC3=O)C(=O)N[C@@H]([C@@H](C)O)C(=O)N[C@@H](C)C(=O)N[C@@H](Cc3ccccc3)C(=O)N[C@@H](CCCCN)C(=O)N2)NC(=O)[C@H](Cc2ccccc2)NC(=O)[C@H](CO)NC(=O)[C@H](CC(C)C)NC(=O)[C@H](CCCNC(=N)N)NC(=O)[C@H](Cc2ccc(O)cc2)NC(=O)[C@H](CCCCN)NC1=O` [ShK-235], in data set [1], the immunogenicity result is “not immunogenic”. Further, the 50% inhibitory concentration (IC50) (commonly the concentration needed to halve the response being measured) in data set [2] amounted to 0.0709 ± 0.0219 nM.
For the molecule “ShK: small peptide produced by the sea anemone Stichodactyla helianthus, one of the most potent blockers of Kv1.3 (RSCIDTIPKSRCTAFKCKHSIKYRLSFCRKTCGTCA)”, the “block of other Kv1.x channels and KCa3.1” value in data set [3] is “in the pM to low nM range”. For the same molecule, the IC50 in data set [4] was 0.01 nM.
